Source: PMC10447463, “Data-mining unveils structure–property–activity correlation of viral infectivity enhancing self-assembling peptides” (Nature Communications, 2023)
Read-outs that look alike come from different tables or passages of the source.

Experiments:
[1] = type: physicochemical; design: key to Fibril / Fibril Formation / TEM 2cat / Fibril: 1 = fibrils present; 0 non-fibrillar structures; conditions: for Fibril / Fibril Formation / Fibril: TEM; for Fibril / Fibril Formation: 1 mg/mL, uranyl acetate stain, qualitative
[2] = type: physicochemical; conditions: for ThT Cat. / ThT-Fluorescence (categorical): ThT-active if fluorescence at least twice the control
Experimental: 4 µL of 1 mg/mL peptide fibrils solution is added to a 20 µL, 50 µM ThT–solution in PBS. The mixture is incubated for 15 min at RT to allow binding of ThT dye with β–sheet rich structures. For reference PBS (4 µL) was added instead of peptide fibril solution. The samples were placed in black UV Star® 384 microliter well–plates (Greiner bio–one). Fluorescence spectra were recorded on an Infinite® M1000 PRO microplate reader (Tecan) at λem = 488 nm upon excitation at λex = 440 nm with 10 nm bandwidths and multiple reads per well (3×3). Measurements were repeated in triplicates and averaged with standard deviation. […] Zeta-Potential. For the determination of the surface charge of aggregated peptides zeta-potential measurements were conducted with a Zetasizer Nano ZS, Malvern Instruments. Unless stated otherwise the peptides were dissolved from DMSO (10 mg/mL) in PBS (pH 7.4) to concentration of 1 mg/mL and incubated for 1d at RT. Just before the measurement the 60 µL of the peptides were further diluted in 600 µL KCl (aq, 1 mM) in a 1 mL disposable folded capillary cells (DTS–1060, Zetasizer Nano series, Malvern). The zeta potential of the peptides was derived from the electrophoretic mobility based on the Smoluchowski formula. All measurements were averaged over two individually performed experiments and conducted in triplicates for each sample. Aggregate analysis. […] Furthermore, fluorescence microscopy was conducted by staining 1 µL preformed fibrils (1 mg/mL) with 9 µL ThT (50 µM). Brightfield microscopy was performed simultaneously to evaluate aggregation also for non ThT-active fibrils. The measurements were performed on a Leica DMi8 microscope with 10x air objective and equipped with a Leica MC170 HD camera with a filter setting λem = 527/30 nm upon excitation at λex = 480/40 nm) and processed with the Leica LASX software. To quantify size and number of microscopic aggregation of particles > 10 µm^2 at least 3 independently measured images were analyzed via the 3D object counter analysis tool of ImageJ, v 1.53f51. Sum–frequency generation. The SFG experiments were carried out with a femtosecond Ti: Sapphire amplified laser system (Spitfire Ace, Spectra–Physics, 800 nm, 40 fs, 1 kHz) with 5 W output power. We used 2 W to pump an optical parametric amplifier (TOPAS, light conversion) with a non–collinear difference frequency generation stage to generate broadband IR pulses. Another 1 W of the laser output passed through an etalon to generate narrowband visible pulses (10 cm^-1). The incident angles of the visible and IR beams were 36° and 41° with respect to the surface normal, respectively. The visible (13 µJ) and IR (5 µJ) pulses were overlapped spatially and temporally at the sample position. Subsequently, the generated SFG pulse was guided into a spectrograph (Acton SP 300i, Princeton Instruments), and detected with an EMCCD (Newton, Andor Technology). To avoid IR absorption of water vapor, we purged N2 for the measurement. All spectra were collected in the ssp (denoting s-, s- and p-polarized SFG, visible and IR, respectively) polarization combination. The spectra were normalized to the non–resonant signal taken from z–cut quartz after subtracting a background spectrum.
1. Remarks on experimental parameters and bioinformatic descriptors

[3] = 1 = fibrils present, 0 = non-fibrillar
[4] = 1 = fibrils present, 0 = non-fibrillar structures
[5] = category: fibrils present or non-fibrillar
[6] = Fig S10 panel D, fibril category by TEM
[7] = ThT fluorescence category, 1 if Rel. ThT >2
[8] = FigS12 panel A, fibril category by TEM

| Substance | TEM 2cat ([1]; Fig S10 panel D) | Fibril / Fibril Formation [1] | Fibril [1, 3] | Fibril [1, 4] | TEM 2cat [1, 5] | Tht category (> 2 to blank = +) ([2]; Fig S10 panel D) | ThT Cat, ([2]; ThT category, 1 if Rel. ThT >2) | ThT Cat. ([2]; ThT category, 1 if Rel. ThT >2) | ThT Cat. / ThT-Fluorescence (categorical) [2] | TEM 2cat [1, 6] | Fibril ([1]; FigS12 panel B) | ThT Cat, ([2]; FigS12 panel B) | ThT Cat. [2, 7] | TEM 2cat [1, 8] | Tht category (> 2 to blank = +) ([2]; FigS12 panel A) | TEM: 1= fibrils, 0= aggregates (micelle), 0.5 = aggregates and fibrils, -1 = nothing obersved, STD prep ([1]; STD prep) | Tht rel to blank (42.1851851851852) ([2]; ThT fluorescence relative to blank, blank = 42.1851851851852) | Tht category (> 1.5 to blank = +) ([2]; category 1/0) | Rel. ThT ([2]; n-fold ThT fluorescence vs control (PBS, 10% DMSO), 4 µL 1 mg/mL fibrils + 20 µL 50 µM ThT, 15 min RT, ex 440 / em 488 nm, triplicate) |
| --- | --- | --- | --- | --- | --- | --- | --- | --- | --- | --- | --- | --- | --- | --- | --- | --- | --- | --- | --- |
| CKFKQFFNM | 1 | 1 | 1 | 1 | 1 | 1 (ThT. Cat is 1, if Rel. ThT >2) | 1 (ThT. Cat is 1, if Rel. ThT >2) | 1 (ThT. Cat is 1, if Rel. ThT >2) | 1 (ThT. Cat is 1, if Rel. ThT >2) |  |  |  |  |  |  |  |  |  |  |
| CKIKIQINMW |  | 1 | 1 | 1 | 1 | 0 (ThT-inactive (N-Fold <2)) | 0 (ThT-inactive (N-Fold <2)) | 0 (ThT-inactive (N-Fold <2)) | 0 (ThT-inactive (N-Fold <2)) | 1 |  |  |  |  |  |  |  |  |  |
| CKIKQIIRGD |  | 0 | 0 | 0 |  |  | 0 (ThT-inactive (N-Fold <2)) |  | 0 (ThT-inactive (N-Fold <2)) |  | 0 | 0 (ThT-inactive (N-Fold <2)) | 0 (ThT-inactive (N-Fold <2)) |  |  |  |  |  |  |
| CQFQFQF |  | 1 | 1 | 1 | 1 | 1 (ThT. Cat is 1, if Rel. ThT >2) | 1 (ThT. Cat is 1, if Rel. ThT >2) |  | 1 (ThT. Cat is 1, if Rel. ThT >2) | 1 |  |  | 1 (ThT. Cat is 1, if Rel. ThT >2) |  |  |  |  |  |  |
| HHHHKAKAKAKAWWWW |  | 0 | 0 | 0 |  | 1 (ThT. Cat is 1, if Rel. ThT >2) | 1 (ThT. Cat is 1, if Rel. ThT >2) | 1 (ThT. Cat is 1, if Rel. ThT >2) | 1 (ThT. Cat is 1, if Rel. ThT >2) | 0 | 0 | 1 (ThT. Cat is 1, if Rel. ThT >2) |  | 0 | 1 (ThT. Cat is 1, if Rel. ThT >2) |  |  |  |  |
| HHHHKAKAKAKAYYYY |  | 0 | 0 | 0 |  | 0 (ThT-inactive (N-Fold <2)) | 0 (ThT-inactive (N-Fold <2)) |  | 0 (ThT-inactive (N-Fold <2)) | 0 | 0 | 0 (ThT-inactive (N-Fold <2)) | 0 (ThT-inactive (N-Fold <2)) | 0 | 0 (ThT-inactive (N-Fold <2)) |  |  |  |  |
| HHHHKIKIKIKIWWWW [TM4] |  |  |  |  |  |  |  |  |  |  |  |  |  |  |  | 0.5 | 4.025 | 1 (ThT. Cat is 1, if Rel. ThT >2) |  |
| HHHHKIKIKIKIYYYY |  | 0 | 0 | 0 | 0 | 1 (ThT. Cat is 1, if Rel. ThT >2) | 1 (ThT. Cat is 1, if Rel. ThT >2) |  | 1 (ThT. Cat is 1, if Rel. ThT >2) | 0 |  |  | 1 (ThT. Cat is 1, if Rel. ThT >2) |  |  |  |  |  |  |
| IKVAVKIKIQINM |  | 1 | 1 | 1 | 1 | 0 (ThT-inactive (N-Fold <2)) | 0 (ThT-inactive (N-Fold <2)) | 0 (ThT-inactive (N-Fold <2)) | 0 (ThT-inactive (N-Fold <2)) | 1 |  |  |  |  |  |  |  |  |  |
| ILKNLSRSRKIKIQIC |  | 1 | 1 | 1 | 1 | 1 (ThT. Cat is 1, if Rel. ThT >2) | 1 (ThT. Cat is 1, if Rel. ThT >2) |  | 1 (ThT. Cat is 1, if Rel. ThT >2) | 1 |  |  | 1 (ThT. Cat is 1, if Rel. ThT >2) |  |  |  |  |  |  |
| ILKNLSRSRKIKIQINMWQ |  | 1 | 1 | 1 | 1 | 1 (ThT. Cat is 1, if Rel. ThT >2) | 1 (ThT. Cat is 1, if Rel. ThT >2) | 1 (ThT. Cat is 1, if Rel. ThT >2) | 1 (ThT. Cat is 1, if Rel. ThT >2) | 1 |  |  |  |  |  |  |  |  |  |
| KAKAKAQA |  | 0 | 0 | 0 |  | 0 (ThT-inactive (N-Fold <2)) | 0 (ThT-inactive (N-Fold <2)) |  | 0 (ThT-inactive (N-Fold <2)) | 0 | 0 | 0 (ThT-inactive (N-Fold <2)) | 0 (ThT-inactive (N-Fold <2)) | 0 | 0 (ThT-inactive (N-Fold <2)) |  |  |  |  |
| KAKAQANM |  | 0 | 0 | 0 |  | 0 (ThT-inactive (N-Fold <2)) | 0 (ThT-inactive (N-Fold <2)) |  | 0 (ThT-inactive (N-Fold <2)) | 0 | 0 | 0 (ThT-inactive (N-Fold <2)) | 0 (ThT-inactive (N-Fold <2)) | 0 | 0 (ThT-inactive (N-Fold <2)) |  |  |  | 1.1 |
